In patent publication US20220088195A1, “Prevention or mitigation of T-cell bispecific antibody-related adverse effects” (Hoffmann-La Roche Inc., priority 2020, published 2022):

Assays:
CD4+ and CD8+ T cells [1] = assay: T cell activation (CD25, CD69 by FACS) in SKM-1 killing assay with HLA-A2 WT-1-TCB, dasatinib added after 24 hours; assay type: cell-based, human; conditions: 48 hours; 100 nM dasatinib added at 24h; 10 nM HLA-A2 WT-1-TCB
Protocol: FIG. 3. In vitro killing assay set-up and timelines. PBMCs were co-cultured with SKM-1 target cells (E:T=10:1) and 10 nM HLA-A2 WT-1-TCB. Dasatinib (100 nM) was added after 24 hours of activation. PBMCs were labelled with CellTrace™ Violet (CTV) to allow T cell proliferation assessment.
FIG. 4. T cell activation. CD25 and CD69 expression on CD4+ and CD8+ T cells was measured by FACS after 24h and 48h of activation in the presence and absence of dasatinib, according to the assay of FIG. 3. (A) CD25 expression on CD8+ T cells, (B) CD25 expression on CD4+ T-cells, (C) CD69 expression on CD8+ T cells, (D) CD69 expression on CD4+ T cells.
To evaluate if dasatinib could act as a rapid and potent inhibitor of activated T cells, we first stimulated PBMCs on SKM-1 tumor cells with HLA-A2 WT-1-TCB for 24 hours. We then supplemented these activated effector cells with 100 nM dasatinib (FIG. 3).
Upon addition of 100 nM dasatinib at 24h, expression of early activation marker CD69 and late activation marker CD25 on CD4+ and CD8+ T cells at 48 hours was found at an intermediate level between expression measured at 24 hours and expression measured at 48 hours in samples with no dasatinib treatment (FIG. 4).

[2] = test system: A375 NucLight Red (NLR) target cells; assay: Incucyte real time killing assay, PBMCs + RMF peptide-pulsed A375 NLR target cells + HLA-A2 WT1-TCB with escalating dasatinib; assay type: cell-based, human
Protocol: FIG. 1. Real time killing of red fluorescent A375 cells loaded with RMF peptides by 10 nM HLA-A2 WT-1-TCB (A) and of red fluorescent MKN45 cells by 1 nM CEA-TCB (B) in the presence of different dasatinib concentrations ranging from 100 nM to 0 nM. (A) A375 NucLight Red (NLR) target cells were pulsed with RMF peptides (2 hours before killing assay) and co-cultured with HLA-A2 WT1-TCB, dasatinib (dasa) and PBMCs, effector to target ratio (E:T)=10:1 (E:T=50 000 PBMCs:5000 target cells). Killing was followed by Incucyte® (1 scan every 3 hours, zoom 10×, phase and red 400 ms acquisition time). % Killing was measured by normalizing total red area with values at t=0 hour and target cells+PBMCs+dasatinib (without TCB) control wells for each time point. Means of technical replicates+/−SEM for 1 donor. (B) MKN45 NLR target cells were co-cultured with CEA TCB, dasatinib and PBMCs, E:T=10:1 (E:T=50 000 PBMCs:5000 target cells). Killing was followed by Incucyte (1 scan every 3 hours, zoom 10×, phase and red 400 ms acquisition time). % Killing was measured by normalizing total red area with values at t=0 hour and target cells+PBMCs+dasatinib control wells for each time point. Means of technical replicates+/−SEM for 1 donor.
To assess the inhibitory effect of dasatinib on TCB-mediated target-cell killing, we conducted killing assays using peripheral blood mononuclear cells (PBMCs), NucLight Red (NLR) target-cells and respective TCB in media supplemented with escalating concentrations of dasatinib. The Incucyte® system (Essen Bioscience) was used to capture the loss of red fluorescent protein signal over time as a readout of target-cell killing.

[3] = blood of mice; cited from earlier work
CD4+ and CD8+ T cells [4] = assay: T cell degranulation, CD107a staining by FACS at 24h, SKM-1 + HLA-A2 WT-1-TCB; assay type: cell-based, human
Protocol: FIG. 13. In vitro killing assay set-up and timelines to assess T cell degranulation. PBMCs were co-cultured with SKM-1 target cells (E:T=5:1) and 10 nM HLA-A2 WT-1-TCB in the presence and absence of 100 nM dasatinib. Golgistop and Golgiplug (both BD) and CD107a antibody were added 3 hours after activation with TCB to prevent cytokine externalization.
FIG. 14. CD107a+ populations among CD4+ and CD8+ T cells in the presence and absence of dasatinib for one representative donor, in the assay of FIG. 13. Expression of CD107a on CD4+ and CD8+ T cells was measured by FACS at 24h.
FIG. 15. Percentages of CD107a+ cells among CD4+ (A) and CD8+ (B) T cells in the presence and absence of dasatinib in the assay of FIG. 13. Expression of CD107a on CD4+ and CD8+ T cells was measured by FACS at 24h. Mean of 3 donors+/−SD.
To assess whether dasatinib can efficiently prevent TCB-mediated target cell killing by activated T cells, we set up an in vitro killing assay with two stimulation steps, mimicking an ON/OFF switch. During the first stimulation, PBMCs were activated on carboxyfluorescein succinimidyl ester (CFSE)-labelled SKM-1 tumors cells with HLA-A2 WT-1-TCB in the absence of dasatinib (ON). During the second stimulation, activated PBMCs together with dead CFSE labelled SKM-1 tumors cells were washed and re-stimulated by HLA-A2 WT-1-TCB on fresh CTV labelled SKM-1 tumor cells in the presence of 100 nM dasatinib (OFF). The use of CFSE and CTV labelled SKM-1 tumors allowed to differentiate tumor cells used for first and second stimulation by flow cytometry (FIG. 8). […] Consistently, T cells were activated and functional before the addition of dasatinib in the system. 87.6% of CTV labelled SKM-1 cells were alive upon second stimulation with 10 nM HLA-A2 WT-1 TCB in the presence of 100 nM dasatinib, but only 2.04% of CTV labelled SKM-1 tumor cells were alive upon restimulation with 10 nM HLA-A2 WT-1-TCB in the absence of dasatinib (FIG. 10). […]

[5] = 10 nM HLA-A2 WT-1-TCB + 100 nM dasatinib, 24h, one representative donor

SMILES: Cc1nc(Nc2ncc(C(=O)Nc3c(C)cccc3Cl)s2)cc(N2CCN(CCO)CC2)n1 [dasatinib, N-(2-chloro-6-methylphenyl)-2-[[6-[4-(2-hydroxyethyl)-1-piperazinyl]-2-methyl-4-pyrimidinyl]amino]-5-thiazole carboxamide monohydrate]
- CD25 and CD69 expression on CD4+ and CD8+ T cells (CD4+ and CD8+ T cells [1]): rapidly blocked the expression of phenotypic activation markers
- inhibition at 0.0125 µM ([2]; Homo sapiens, A-375, 12.5 nM dasatinib, 10 nM HLA-A2 WT-1-TCB, read-out: inhibition of target-cell killing): 78.2%
- inhibition at 0.05 µM ([2]; Homo sapiens, A-375, 50 nM (24.4 ng/mL) dasatinib, 10 nM HLA-A2 WT1-TCB, read-out: inhibition of target-cell killing): 89%
- inhibition at 0.1 µM ([2]; Homo sapiens, A-375, 100 nM (48.8 ng/mL) dasatinib, 10 nM HLA-A2 WT1-TCB, read-out: inhibition of target-cell killing): 86.5%
- inhibition of killing ([2]; dasatinib concentrations below 12.5 nM, 10 nM HLA-A2 WT-1-TCB): only partially inhibited killing
- half-life [3]: around 6 hrs
- cells positive for CD107a among CD4+ T cells (CD4+ and CD8+ T cells [4]; [5]): 1.22%
- cells positive for CD107a among CD8+ T cells (CD4+ and CD8+ T cells [4]; [5]): 2.08%
- TCB-induced CD107a expression on CD4+ and CD8+ T cells (CD4+ and CD8+ T cells [4]; 100 nM dasatinib, 3 donors): prevented
